Data on two compounds can be found in US20080145465A1, “Sesquiterpene lactone extract from artemisia leucodes for reducing inflammation and down-regulating pro-inflammatory gene expression” (priority 2006, published 2008).

In brackets after ≈: the same amount, converted by molar mass. Entries after “also recorded” stand apart in the source; their conditions may differ. Like-named read-outs stand apart in the source and are kept apart here.

One test addresses T1, COX-2 (Ovis aries, UniProt P79208).
T1 construct: purchased Cayman Chemical Company
T1 sequence (P79208 17-603): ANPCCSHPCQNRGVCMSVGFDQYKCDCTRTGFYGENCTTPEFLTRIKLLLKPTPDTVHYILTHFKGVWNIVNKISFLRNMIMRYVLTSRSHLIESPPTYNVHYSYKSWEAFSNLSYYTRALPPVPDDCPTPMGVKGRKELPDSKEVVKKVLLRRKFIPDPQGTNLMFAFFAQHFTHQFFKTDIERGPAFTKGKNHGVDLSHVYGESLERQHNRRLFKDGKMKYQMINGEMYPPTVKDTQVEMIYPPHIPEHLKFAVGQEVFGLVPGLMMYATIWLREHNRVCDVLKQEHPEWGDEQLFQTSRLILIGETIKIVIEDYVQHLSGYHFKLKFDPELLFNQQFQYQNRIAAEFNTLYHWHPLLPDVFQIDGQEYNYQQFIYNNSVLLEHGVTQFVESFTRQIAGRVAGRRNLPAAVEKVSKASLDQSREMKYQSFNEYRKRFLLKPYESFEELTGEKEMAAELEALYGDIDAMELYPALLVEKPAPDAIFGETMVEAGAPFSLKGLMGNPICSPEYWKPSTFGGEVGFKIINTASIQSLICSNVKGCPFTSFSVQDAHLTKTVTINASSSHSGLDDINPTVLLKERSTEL
Kind of test: Colorimetric COX inhibitor screening assay, COX-2. The format is biochemical, ovine. The protocol:
(§1) An ovine COX inhibitor screening assay (Cayman Chemical Company, Ann Arbor, Mich.) was used to measure inhibition of purified COX-1 and COX-2. This assay measures the peroxidase component of cyclooxygenases colorimetrically by monitoring the appearance of oxidized N,N,N′,N′-tetramethyl-p-phenylenediamine (TMPD) at 590 nm. Tablets of Vioxx (rofecoxib; Merck & Co., Inc., Whitehouse Station, N.J.) were ground and dissolved in methanol (1 mg/mL) to use as a positive control. AL-1, leukomisin, and austricin were also dissolved in methanol at 1 mg/mL. The assay was performed following manufacturer instructions. Vioxx, vehicle (100% initial activity), or treatments were added to a 96-well plate along with 180 μL assay mixture provided by the manufacturer containing 150 μL assay buffer, 10 μL heme, and 10 μL enzyme (COX-1 or COX-2). A background correction row received no enzyme and 10 μL additional assay buffer. After 5 min incubation at room temp, 20 μL of a colorimetric substrate solution containing TMPD and 20 μL arachadonic acid diluted in assay buffer were added to the plate. The plate was incubated for 5 min and the absorbance was read at 590 nm using a microplate reader (Molecular Devices, Sunnyvale, Calif.). To calculate percent inhibition, average absorbance was calculated for each sample (n=3). The background blank well absorbance was subtracted from each sample.
[(100% Initial activity-Blank)−(Treatment-Blank)/(100% Initial activity-Blank)]*100

The target of the next test is T2, COX-1 (Ovis aries, UniProt P05979).
T2 construct: purchased Cayman Chemical Company
T2 sequence (P05979 25-600): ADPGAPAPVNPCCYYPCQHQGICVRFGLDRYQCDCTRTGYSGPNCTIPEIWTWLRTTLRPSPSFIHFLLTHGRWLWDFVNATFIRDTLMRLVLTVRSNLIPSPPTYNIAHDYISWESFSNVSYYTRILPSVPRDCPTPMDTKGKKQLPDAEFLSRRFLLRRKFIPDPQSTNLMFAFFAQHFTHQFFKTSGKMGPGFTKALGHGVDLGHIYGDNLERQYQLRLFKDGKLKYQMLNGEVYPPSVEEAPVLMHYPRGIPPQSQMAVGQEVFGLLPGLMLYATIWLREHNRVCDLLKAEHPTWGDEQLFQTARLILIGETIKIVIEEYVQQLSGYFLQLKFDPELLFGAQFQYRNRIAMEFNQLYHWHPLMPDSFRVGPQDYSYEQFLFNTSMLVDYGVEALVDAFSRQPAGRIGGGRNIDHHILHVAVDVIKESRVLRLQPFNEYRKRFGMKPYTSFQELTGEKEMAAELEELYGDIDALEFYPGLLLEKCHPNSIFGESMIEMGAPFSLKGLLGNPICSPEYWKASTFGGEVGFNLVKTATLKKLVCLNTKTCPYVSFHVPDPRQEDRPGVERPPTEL
Kind of test: Colorimetric COX inhibitor screening assay, COX-1. The format is biochemical, ovine. The note with it: data not shown. The method, then:
as §1, with “sample. […]” for “sample.”

[1] abbreviates: read-out: percent inhibition of COX-2 enzyme activity, mean ± SE.

Regarding `CC1=CC(=O)C2=C(C)CC[C@@H]3[C@H](OC(=O)[C@H]3C)[C@@H]12` [leukomisin], the “percent inhibition of COX-2 enzyme activity, mean ± SE” value at COX-2 (45 μg/ml) amounted to 34 ± 1%; at COX-2 (115 μg/ml), 51 ± 3%; on COX-2 (225 μg/ml), 65 ± 5%. In addition, the “IC50, COX-2 inhibition” value against COX-2 (purified ovine COX-2) turned out to be 129 µg/mL (≈ 524 µM). Further, the IC50 at COX-2 (purified ovine COX-2, read-out: IC50, COX-2 inhibition) was determined as 524 µM. Moreover, the “COX-1 enzyme inhibition (in words)” value on COX-1 is given as “did not inhibit COX-1 activity; also recorded: did not significantly inhibit”.
`CC1=CC(=O)C2=C(C)C[C@H](O)[C@@H]3[C@H](OC(=O)[C@H]3C)[C@@H]12` (single isomer, unassigned) [austricin]: inhibition at COX-2 (IC50, COX-2 inhibition, purified ovine COX-2) was half-maximal at 1970 µM (IC50). For the same compound, the IC50 at COX-2 (IC50, COX-2 inhibition, purified ovine COX-2, molar value in brackets) came out at 2000 µM. At COX-2 (setting [1]), the inhibition at 45 µg/mL worked out at 19 ± 1%, the inhibition at 115 µg/mL was 29 ± 2% and the inhibition at 225 µg/mL worked out at 31 ± 1%. For the same compound, at COX-1, the “COX-1 enzyme inhibition (in words)” value is given as “did not inhibit COX-1; also recorded: did not significantly inhibit”.
